Source: BindingDB's records for doi:10.1016/j.bmcl.2020.127000 (Ajinomoto, 2020)

Assay: Positive allosteric modulation of human TIR2/TIR3 expressed in PEAKrapid cells assessed as potentiation of sucrose-induced intracellular calcium influx by measuring sucrose EC50 at 30 uM measured for 120 secs by fluorescence based assay

Question: With `CCCCCC(=O)NC(C)(C)CC(=O)Nc1cncc(C(=O)O)c1N` as the compound, how does the EC50 read?
Answer: 6.6 mM

Question: For `CCCCCCCCCCCC(=O)NC(C)(C)CC(=O)Nc1cncc(C(=O)O)c1N`, which EC50 is on record?
Answer: 11.8 mM

Question: Which EC50 does the source give for `CC(C)(CC(=O)Nc1cncc(C(=O)O)c1N)NC(=O)C1(N)CCCCC1` here?
Answer: 7.5 mM

Question: With `CC(C)(CC(=O)Nc1cncc(C(=O)O)c1N)NC(=O)CC1CCCCC1` as the compound, how does the EC50 read?
Answer: 5.4 mM

Question: With `CC(C)(CC(=O)Nc1cncc(C(=O)O)c1N)NC(=O)[C@@H]1CCC[C@H](N)C1` as the compound, how does the EC50 read?
Answer: 9.8 mM

Question: Which EC50 does the source give for `CC(C)(CC(=O)Nc1cncc(C(=O)O)c1N)NC(=O)c1ccccc1` here?
Answer: 11.1 mM

Question: For `CC(C)(CC(=O)Nc1cncc(C(=O)O)c1N)NC(=O)[C@@H](N)C1CCCCC1`, which EC50 is on record?
Answer: 2.6 mM

Question: Which EC50 does the source give for `CC(C)(CC(=O)Nc1cncc(C(=O)O)c1N)NC(=O)[C@H](N)C1CCCCC1` here?
Answer: 7.7 mM

Question: With `CC(C)(CC(=O)Nc1cncc(C(=O)O)c1N)NC(=O)c1cccc2c1CCCC2` as the compound, how does the EC50 read?
Answer: 8.9 mM

Question: With `CC(C)(CC(=O)Nc1cncc(C(=O)O)c1N)NC(=O)C1(c2ccccc2)CC1` as the compound, how does the EC50 read?
Answer: 8.4 mM

Question: Which EC50 does the source give for `CC(C)(CC(=O)Nc1cncc(C(=O)O)c1N)NC(=O)CCC1CCCCC1` here?
Answer: 10.9 mM

Question: Which EC50 does the source give for `CCCCCCCC(=O)NC(C)(C)CC(=O)Nc1cncc(C(=O)O)c1N` here?
Answer: 10.2 mM

Question: With `CC(C)(CC(=O)Nc1cncc(C(=O)O)c1N)NC(=O)[C@@H](N)CC1CCCCC1` as the compound, how does the EC50 read?
Answer: 7.3 mM

Question: For `CCCCCCC(=O)NC(C)(C)CC(=O)Nc1cncc(C(=O)O)c1N`, which EC50 is on record?
Answer: 7.8 mM

Question: For `CC(C)(CC(=O)Nc1cncc(C(=O)O)c1N)NC(=O)c1ccc(N)cc1`, which EC50 is on record?
Answer: 8.9 mM

Question: With `CC(C)C(=O)NC(C)(C)CC(=O)Nc1cncc(C(=O)O)c1N` as the compound, how does the EC50 read?
Answer: 7.9 mM

Question: With `CC(C)[C@H](N)C(=O)NC(C)(C)CC(=O)Nc1cncc(C(=O)O)c1N` as the compound, how does the EC50 read?
Answer: 9.3 mM

Question: Which EC50 does the source give for `CC[C@H](C)[C@H](NC(=O)[C@@H](N)C1CCCCC1)C(=O)NC(C)(C)CC(=O)Nc1cncc(C(=O)O)c1N` here?
Answer: 5.6 mM

Question: For `CC(C)(CC(=O)Nc1cncc(C(=O)O)c1N)NC(=O)c1cccc(N)c1`, which EC50 is on record?
Answer: 10.7 mM

Question: For `CC(C)(CC(=O)Nc1cncc(C(=O)O)c1N)NC(=O)C1CCNC1` (centres undefined), which EC50 is on record?
Answer: 8 mM

Question: With `CC(C)(C)CC(=O)NC(C)(C)CC(=O)Nc1cncc(C(=O)O)c1N` as the compound, how does the EC50 read?
Answer: 8.1 mM

Question: With `CC(C)C[C@H](NC(=O)[C@@H](NC(=O)OC(C)(C)C)C1CCCCC1)C(=O)NC(C)(C)CC(=O)Nc1cncc(C(=O)O)c1N` as the compound, how does the EC50 read?
Answer: 3.7 mM

Question: Which EC50 does the source give for `CC(C)(CC(=O)Nc1cncc(C(=O)O)c1N)NC(=O)[C@H]1CC[C@H](N)CC1` here?
Answer: 7.8 mM

Question: For `CC(C)(CC(=O)Nc1cncc(C(=O)O)c1N)NC(=O)CC[C@@H](N)Cc1ccccc1`, which EC50 is on record?
Answer: 8.8 mM

Question: With `CC(C)C[C@H](NC(=O)[C@@H](N)C1CCCCC1)C(=O)NC(C)(C)CC(=O)Nc1cncc(C(=O)O)c1N` as the compound, how does the EC50 read?
Answer: 5.6 mM

Question: Which EC50 does the source give for `CC(C)(CC(=O)Nc1cncc(C(=O)O)c1N)NC(=O)[C@H]1CC[C@@H](N)CC1` here?
Answer: 7.3 mM

Question: With `CC(C)(CC(=O)Nc1cncc(C(=O)O)c1N)NC(=O)CC1CCCC1` as the compound, how does the EC50 read?
Answer: 5.1 mM

Question: For `CC(C)(CC(=O)Nc1cncc(C(=O)O)c1N)NC(=O)[C@@H](N)c1ccccc1`, which EC50 is on record?
Answer: 9.5 mM

Question: Which EC50 does the source give for `CC(C)(CC(=O)Nc1cncc(C(=O)O)c1N)NC(=O)C[C@@H]1CCNC1` here?
Answer: 7.4 mM

Question: Which EC50 does the source give for `CC(C)(CC(=O)Nc1cncc(C(=O)O)c1N)NC(=O)[C@@H](NC(=O)[C@@H](N)C1CCCCC1)C1CCCCC1` here?
Answer: 2.5 mM

Question: Which EC50 does the source give for `CC(C)(CC(=O)Nc1cncc(C(=O)O)c1N)NC(=O)C1CCCCC1` here?
Answer: 6.1 mM

Question: With `CC(C)(CC(=O)Nc1cncc(C(=O)O)c1N)NC(=O)C[C@H]1CCNC1` as the compound, how does the EC50 read?
Answer: 7.6 mM

Question: For `CC(C)(CC(=O)Nc1cncc(C(=O)O)c1N)NC(=O)C(C)(C)C`, which EC50 is on record?
Answer: 9.3 mM

Question: Which EC50 does the source give for `CC[C@H](C)[C@H](NC(=O)[C@@H](NC(=O)OC(C)(C)C)C1CCCCC1)C(=O)NC(C)(C)CC(=O)Nc1cncc(C(=O)O)c1N` here?
Answer: 3.3 mM

Question: For `CC(C)C[C@H](N)C(=O)NC(C)(C)CC(=O)Nc1cncc(C(=O)O)c1N`, which EC50 is on record?
Answer: 5.7 mM

Question: Which EC50 does the source give for `CC(C)CC(=O)NC(C)(C)CC(=O)Nc1cncc(C(=O)O)c1N` here?
Answer: 7.3 mM

Question: For `CCCCCCCC/C=C\CCCCCCCC(=O)NC(C)(C)CC(=O)Nc1cncc(C(=O)O)c1N`, which EC50 is on record?
Answer: 9.9 mM

Question: Which EC50 does the source give for `CC(C)(CC(=O)Nc1cncc(C(=O)O)c1N)NC(=O)CC1(CN)CCCCC1` here?
Answer: 4.3 mM

Question: For `CC(C)(CC(=O)Nc1cncc(C(=O)O)c1N)NC(=O)C1CCNCC1`, which EC50 is on record?
Answer: 14.4 mM
